# Reference: US20040236269A1, “Microsurgical tissue treatment system” (priority 2002, published 2004)
# Experiment: Delivery of a topical anesthetic through micro-ablated stratum corneum; sensation probed with 20 gauge needle or by pinching
# Type: in vivo
# Details: solution of 4% lidocaine applied for five minutes to approx. 1 cm^2 area ablated by piezoelectric actuator with 60 micron aluminum oxide particles, 10-15 pulses, 20 kHz; probed with 20 gauge needle or pinching
# Procedure: A piezoelectric actuator was fitted with 60 micron aluminum oxide particles fixed to its surface so as to provide an approximate 1 cm^2 treatment area. Ten to fifteen pulses of less than one second duration were applied with force of less than 1 pound to the area and frequency of 20 kHz. […] A solution of 4% lidocaine was applied to the area and incubated for five minutes. The excess lidocaine was wiped off, and a series of probes was made in and around the area of treatment using a 20 gauge needle or by pinching.
smiles,measurement,value
CCN(CC)CC(=O)Nc1c(C)cccc1C [lidocaine],anesthesia (lack of sensation within and in close proximity to the treatment site),significant anesthesia was obtained
